The results in this text go back to patent EP0412760A2, “Benzopyran derivatives” (Beecham Group p.l.c., priority 1989, dated 1991).

Test [1] concerns Spontaneously hypertensive rats. As to the kind of experiment: Antihypertensive activity: systolic blood pressure by tail cuff method. It counts as in vivo. As to conditions: dose of 0.05 mg/kg p.o. The method, then:
Systolic blood pressures were recorded by a modification of the tail cuff method described by I.M. Claxton, M.G. Palfreyman, R.H. Poyser, R.L. Whiting, European Journal of Pharmacology, 37, 179 (1976). A W+W BP recorder, model 8005 was used to display pulses. Prior to all measurements rats were placed in a heated environment (33.5 ± 0.5°C) before transfer to a restraining cage. The determination of blood pressure was the mean of 5 readings. Spontaneously hypertensive rats (ages 12-18 weeks) with systolic blood pressures >180 mmHg were considered hypertensive.

In test [2] the test system is trachea. As to the kind of experiment: Bronchodilator activity: relaxation of isolated trachea spirals. As to conditions: Cavia porcellus; fall in resting tension as percentage of total relaxation evoked by 10⁻³M isoprenaline; guinea pig trachea spirals, Krebs solution at 37°C; read-out: IC₅₀. It counts as cell-based, guinea pigs. The protocol: Male guinea pigs (300-600g) were stunned by a blow to the head and bled from the carotid artery. The trachea was exposed, dissected free of connective tissue, and transferred to oxygenated Krebs solution at 37 °C. Next, spirals (2 per trachea) were prepared by cutting the whole trachea spirally along its longitudinal axis and then dividing this spiral lengthwise. Each preparation was mounted, using silk thread, in a 10ml organ bath filled with Krebs solution at 37 °C and bubbled with 5% CO₂ with O₂. The resting tension of the preparations was set at 2g and changes in muscle tension were monitored isometrically by means of a UFI (2oz) force and displacement transducer (Ormed Ltd) connected to a Linseis pen recorder. All preparations were allowed to equilibrate for 60 minutes. During this equilibration period the preparations were washed by upward displacement at 15 minute intervals and, if necessary, the resting tension was readjusted to 2g using a mechanical micromanipulator system.
Once a steady resting tension had been obtained, the preparations were dosed simultaneously with the test compound (10⁻⁸-2x10⁻⁵M), and finally a maximum relaxation achieved by addition of 10⁻³M isoprenaline. The fall in tension evoked by the test compound was expressed as a percentage of the total relaxation evoked in the presence of 10⁻³ isoprenaline. […]

`CCc1ccc2c(c1)[C@@H](N1CCCCC1=O)[C@H](O)C(C)(C)O2` [compound of formula (I), 3,4-Dihydro-2,2-dimethyl-6-ethyl-4R-(2-oxopiperidin-1-yl)-2H-1-benzopyran-3S-ol]: the “maximum fall in blood pressure” value in test [1] amounted to 19%. For the same compound, in test [2], the IC50 turned out to be 230 nM.
